Measurements: patent publication US20240294478A1, “ANTI-CANCER COMPOUNDS AND METHODS OF USE” (YALE UNIVERSITY, priority 2021, published 2024)

Key:
LN229 MGMT+ shMLH1 cells = experiment: Short-term viability assay, LN229 MGMT+ shMLH1; format: cell-based; conditions: Homo sapiens, LN-229, Table III, read-out: IC50 against LN229 cell lines, MGMT MMR−
Method: (§1) The activity of KL-50 in MGMT-LN229 cells engineered to lack expression of other key MMR proteins including MSH6, MLH1, PMS2, and MSH3 was also confirmed. Western blotting was performed in LN229 MGMT+/−cells with stable expression of shRNA targeting MSH6, MLH1, PMS2, or MSH3 to confirm depletion of the shRNA targets. In shMSH6 cells, there was reduced expression of MSH2, and in shMLH1 cells, there was loss of PMS2, due to destabilization in the setting of loss of their heterodimeric partners. GAPDH serves as loading control. […] Short-term viability assay curves for KL-50 in LN229 MGMT+/−, MMR+/shMSH6 cells. […] Short-term viability assay curves for KL-50 in LN229 MGMT+/−, MMR+/shMLH1 cells. […] Short-term viability assay curves for KL-50 in LN229 MGMT+/−, MMR+/shPMS2 cells. […] Short-term viability assay curves for KL-50 in LN229 MGMT+/−, MMR+/shMSH3 cells.
MMR Protein shRNA Knockdown. pGIPZ lentiviral shRNA vectors targeting MSH2, MSH6, MLH1, PMS2, and MSH3 were purchased from Horizon Discovery (Table IV). […]
Short-term Cell Viability Assay. […] Cells were imaged on a Cytation 3 imaging reader (BioTek) and quantified using CellProfiler software. For in vitro short-term growth delay experiments, IC50 values were determined from the nonlinear regression equation, [inhibitor] vs normalized response with variable slope.

LN229 MGMT− shPMS2 cells = experiment: Short-term viability assay, LN229 MGMT- shPMS2; format: cell-based, human; conditions: for IC50: Homo sapiens, LN-229, Table III, read-out: IC50 against LN229 cell lines, MGMT− MMR−; for MGMT− RI: Table III
Method: as §1
(§2) MMR Protein shRNA Knockdown. pGIPZ lentiviral shRNA vectors targeting MSH2, MSH6, MLH1, PMS2, and MSH3 were purchased from Horizon Discovery (Table IV). Lentiviral particles were produced in HEK293T cells via co-transfection with lentiviral shRNA plasmid, pCMV-VSV-G envelope plasmid (Addgene, #8454) and psPAX2 packaging plasmid (Addgene, #12260), using Lipofectamine 3000 Reagent (Invitrogen, L3000001) per manufacturer's protocol. Viral particles were harvested 48 h post-transfection and used to transduce LN229 MGMT+/−cells in the presence of 8 μg/mL polybrene. Selection of pooled cells with lentiviral expression was established with 1 μg/mL puromycin 48 h post-transduction for 3 to 4 days. Single cell cloning was performed by limiting dilution and protein knockdown was confirmed by western blotting.
(§3) Short-term Cell Viability Assay. Cells were seeded in 96-well plates at 1000 or 2000 cells/well and allowed to adhere at 23° C. for 60 min and then incubated overnight at 37° C. Cells were treated with indicated concentrations of compounds in triplicate for 4-6 days prior to fixation with 3.7% paraformaldehyde and nuclear staining with 1 μg/mL Hoechst 33342 dye. Cells were imaged on a Cytation 3 imaging reader (BioTek) and quantified using CellProfiler software. For in vitro short-term growth delay experiments, IC50 values were determined from the nonlinear regression equation, [inhibitor] vs normalized response with variable slope.

MGMT−/MMR+ cells = experiment: IR alkaline comet assay, LN229 MGMT-/MMR+; format: cell-based, human; conditions: for IR-induced comet tail (ICL formation): 200 μM; for comet tailing in the absence of IR: TMZ 200 μM, KL-50 200 μM, MMC 0.1 or 50 μM
Method: The IR alkaline comet assay, adapted for ICL detection was performed to determine if ICLs were formed in MGMT-cells treated with KL-50. In this assay, cells were sequentially exposed to genotoxins and ionizing radiation, and then analyzed by single cell alkaline gel electrophoresis. Attenuation of the IR-induced comet tail is indicative of ICL formation.
IR Alkaline Comet Assay. This assay was performed utilizing the CometAssay™ Kit (Trevigen) according to the alkaline assay protocol, with the addition of slide irradiation post-lysis. Cells were trypsinized, washed with 1×PBS, added to melted Comet LMAgarose (Trevigen), and spread on Trevigen CometSlides at a density of 1000 cells per sample in 50 μL. Lysis solution (Trevigen) with 10% DMSO was added overnight at 4° C. […] Slides were then placed in alkaline buffer (200 mM NaOH, 1 mM EDTA) for 45 min, followed by electrophoresis in 850 mL alkaline buffer for 45 min at 4° C. Slides were washed and stained with SYBR gold (Invitrogen) per Trevigen assay protocol. Slides were imaged on a Cytation 3 imaging reader (BioTek), and comets were analyzed using CometScore 2.0 software (TriTek).

[1] = system: HCT116 cells complemented with chromosome 3 carrying wildtype MLH1 (+Chr3); experiment: Short-term viability assay, HCT116 +Chr3 cells +/- O6BG; format: cell-based, human; conditions: with or without 10 μM O6BG pre-treatment
Method: (§4) FIG. 1B: Short-term viability assay curves for KL-50 in DLD1 MSH6-deficient cells pre-treated with 0.01% DMSO control (CTR) or 10 μM O^6BG (+O^6BG) for 1 h prior to KL-50 addition. […] Short-term viability assay curves for (FIG. 1E) KL-50 in HCT116 MLH1−/−cells or (FIG. 1F) HCT116 cells complemented with chromosome 3 carrying wildtype MLH1 (+Chr3) pre-treated with 0.01% DMSO control or 10 μM O^6BG (+O^6BG) for 1 h prior to KL-50 addition. […] For these figures, points, mean; error bars, SD; n>3 technical replicates.
as §3

LN229 MGMT− shMSH6 cells = experiment: Short-term viability assay, LN229 MGMT- shMSH6; format: cell-based, human; conditions: for IC50: Homo sapiens, LN-229, Table III, read-out: IC50 against LN229 cell lines, MGMT− MMR−; for MGMT− RI: Table III
Method: as §1, §2, §3

[2] = system: DLD1 colorectal adenocarcinoma cells (MSH6−); experiment: Short-term viability assay, DLD1 MSH6-deficient cells +/- O6BG; format: cell-based, human; conditions: with or without 10 μM O6BG pre-treatment (MGMT depletion)
Method: as §4, §3

| Structure (SMILES) | IC50 (LN229 MGMT+ shMLH1 cells) | IC50 (LN229 MGMT− shPMS2 cells) | MGMT− RI (LN229 MGMT− shPMS2 cells) | IR-induced comet tail (ICL formation) (MGMT−/MMR+ cells) | comet tailing in the absence of IR (MGMT−/MMR+ cells) | cytotoxicity in HCT116 MLH1-complemented cells [1] | IC50 (LN229 MGMT− shMSH6 cells) | MGMT− RI (LN229 MGMT− shMSH6 cells) | cytotoxicity in DLD1 cells [2] |
| --- | --- | --- | --- | --- | --- | --- | --- | --- | --- |
| NC(=O)c1ncn2c(=O)n(CCF)nnc12 [KL-50] | 252 ± 28 µM | 5.4 ± 0.3 µM | 0.4 | reduced the % DNA in the tail to levels similar to those seen for 0.1 μM MMC | induced tailing | induced selective tumor cell killing specifically in the setting of O^6BG-induced MGMT suppression | 6.6 ± 0.4 µM | 0.5 | toxic to these cells, but only after O^6BG-induced MGMT depletion |
| Cn1nnc2c(C(N)=O)ncn2c1=O [TMZ, 4-methyl-5-oxo-2,3,4,6,8-pentazabicyclo[4.3.0]nona-2,7,9-triene-9-carboxamide, reference compound] | 769 ± 100 µM | 921 ± 190 µM | 181 | did not reduce DNA migration following IR | induced tailing | enhanced sensitivity to TMZ, which was further potentiated by MGMT depletion | 950 ± 68 µM | 186 | inactive |
